According to patent US5045566A, “Novel imidate insecticides” (ICI Americas Inc., priority 1989, dated 1991):

Experiments:
Format in all cases: in vivo
[1] = tested on: Aster Leafhopper [Macrosteles fascifrens (Stal)]; assay: Aster leafhopper on dipped oat seedlings (LH), 48 hours; conditions: percent in solution, adults/nymphs
Description: The compounds in Tables 1 and 2 above were tested for insecticidal activity using the following testing procedures. LC50 values, based on the results of these tests and calculated according to dosage-mortality curves, are expressed in Table 3.
Aster Leafhopper [Macrosteles fascifrens (Stal)]
Oat seedlings (Avena sp) were grown in a commercial potting soil in cups. When the plants were approximately 10 cm tall they were thinned to three plants per cup and dipped for 2-3 seconds in 50-50 acetone-water solutions of the test compounds. When the plants had dried, a clear plastic tube was placed over them and the bottom end pressed into the cup. Ten aster leafhopper adults/nymphs were then placed in each tube and the tops of the tubes covered with white organdy cloth. Mortality counts were made after 48 hours. Test concentrations ranged from 0.05% down to that at which 50% mortality occurred. The LC50 values are expressed below in Table 3 under the heading "LH" in terms of the percent of the test compound in the solution.

[2] = tested on: Black Bean Aphid [Aphis fabae (Scop.)]; assay: Black bean aphid spray test on nasturtium (BBA), 48 hours; conditions: percent of test compound in sprayed solution
Outline: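 LC50, given as percent test compound in the sprayed liquid, was calculated from dosage-mortality curves using concentrations from 0.05% downward. Sprays in 50:50 acetone-water went to runoff on ~5 cm nasturtiums carrying 25-50 aphids of mixed ages, one day after infestation. Deaths were counted 48 h later under greenhouse conditions.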

[3] = tested on: Cabbage Looper [Trichoplusia ni (Hubner)]; assay: Cabbage looper leaf dip (CL), 3-5 days; conditions: percent in solution, second-instar larvae
Outline: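 Compounds in 50-50 acetone-water were applied by dipping squash cotyledons (about 1×1.5 in) for 2-3 s; dried leaves went into petri dishes on moist filter paper with 5 second-instar larvae under high humidity. Mortality was scored after 3-5 days; LC50 from dosage-mortality curves, as percent compound in solution.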

[4] = tested on: Housefly [Musca domestica]; assay: Housefly contact mortality in dishes (HF), 48 hours; conditions: μg of test compound per 25 female flies
Outline: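 LC50, as μg compound per 25 female flies, comes from dosage-mortality curves with doses from 100 μg downward. Residues were made by evaporating acetone plus 0.01% peanut oil in dishes, onto which 1-2-day-old females were caged; deaths were counted after 48 hours.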

[5] = tested on: Maize weevil [Sitophilus zeamais (Motschulsky)]; assay: Maize weevil on dipped corn seeds (MW), 48 hours; conditions: percent in solution, adult weevils
Outline: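 LC50, given as percent of compound in dipping solution, comes from dosage-mortality curves over concentrations descending from 0.01%. Four corn seeds soaked 2-3 s in 50:50 acetone:water solution were dried and held with 10 adult weevils, about 25° C, mortality read after 48 h.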

[6] = tested on: Tobacco Budworm [Heliothis virescens (Fabricius)] eggs; assay: Tobacco budworm eggs (TBW-E); conditions: percent in solution; 2-day old eggs
Outline: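 Paper towel patches bearing 2-day old eggs were dipped in acetone solutions of compound, then set in petri dishes over larval rearing medium at 78° F. Mortality was scored once all control eggs had hatched and larvae were feeding. LC50, from dosage-mortality curves, is given as percent compound in solution.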

With `CC(C)C(=Nc1ccc(Br)c(C(F)(F)F)c1)OCc1ccc(F)c(Oc2ccc(F)cc2)c1` [Compound 364] the “LC50 LH” value [1] was < 0.05%, the “LC50 BBA” value [2] was 0.001% and the “LC50 CL” value [3] was 0.00045%. For the same compound, the “LC50 HF” value [4] was < 100 µg, the “LC50 MW” value [5] was > 0.01% and the “LC50 TBW E (eggs)” value [6] was 0.025%.

For `Cc1cc(N=C(OCc2ccc(F)c(Oc3ccccc3)c2)C(C)C)ccc1Br` [Compound 358], the “LC50 LH” value [1] was < 0.05%, the “LC50 BBA” value [2] was 0.0003% and the “LC50 CL” value [3] was > 0.1%. For the same compound, the “LC50 HF” value [4] was < 100 µg, the “LC50 MW” value [5] was > 0.01% and the “LC50 TBW E (eggs)” value [6] was > 0.1%.

`CC1(C)C(C(=Nc2ccc(F)c(Cl)c2)OCc2cccc(Oc3ccccc3)c2)C1(C)C` [Compound 124] was tested, and the “LC50 LH” value [1] was > 0.05%, the “LC50 BBA” value [2] was > 0.05% and the “LC50 CL” value [3] was 0.01%. For the same compound, the “LC50 HF” value [4] was 17 µg, the “LC50 MW” value [5] was > 0.01% and the “LC50 TBW E (eggs)” value [6] was > 0.1%.

For `CC(C)C(=Nc1cccc(I)c1)OCc1cccc(Oc2ccc(F)cc2)c1` [Compound 255], the “LC50 LH” value [1] was 0.0005%, the “LC50 BBA” value [2] was 0.003% and the “LC50 CL” value [3] was 0.00017%. The “LC50 HF” value [4] was 16 µg, the “LC50 MW” value [5] was > 0.01% and the “LC50 TBW E (eggs)” value [6] was 0.075%.

With `CSc1ccc(Oc2cccc(COC(=Nc3ccc(F)c(Cl)c3)C(C)C)c2)cc1` [Compound 256] the “LC50 LH” value [1] was > 0.05%, the “LC50 BBA” value [2] was 0.03% and the “LC50 CL” value [3] was 0.007%. For the same compound, the “LC50 HF” value [4] was > 100 µg, the “LC50 MW” value [5] was > 0.01% and the “LC50 TBW E (eggs)” value [6] was 0.1%.

In the case of `CC(C)(C)C(=Nc1ccc(Cl)c(Cl)c1)OCc1cccc(Oc2ccccc2)c1` [Compound 25], the “LC50 LH” value [1] is reported as > 0.05%, the “LC50 BBA” value [2] is reported as > 0.1% and the “LC50 CL” value [3] is reported as 0.01%. For the same compound, the “LC50 HF” value [4] was > 100 µg, the “LC50 MW” value [5] was > 0.01% and the “LC50 TBW E (eggs)” value [6] was > 0.1%.

For `CC(C)C(=Nc1ccccc1Cl)OCc1cccc(Oc2ccccc2)c1` [Compound 17], the “LC50 LH” value [1] was > 0.05%, the “LC50 BBA” value [2] was 0.03% and the “LC50 CL” value [3] was 0.03%. For the same compound, the “LC50 HF” value [4] was 75 µg, the “LC50 MW” value [5] was > 0.01% and the “LC50 TBW E (eggs)” value [6] was > 0.1%.

For `CC(C)C(=Nc1ccc(F)c(Cl)c1)OCc1cccc(Oc2ccccc2F)c1` [Compound 119], the “LC50 LH” value [1] was 0.0008%, the “LC50 BBA” value [2] was > 0.05% and the “LC50 CL” value [3] was 0.0007%. The “LC50 HF” value [4] was 27 µg, the “LC50 MW” value [5] was > 0.01% and the “LC50 TBW E (eggs)” value [6] was 0.048%.

For `CC(C)C(=Nc1ccc(F)c(Cl)c1)OCC#CCOc1ccccc1` [Compound 534], the “LC50 LH” value [1] was > 0.05%, the “LC50 BBA” value [2] was > 0.05% and the “LC50 CL” value [3] was < 0.1%. For the same compound, the “LC50 HF” value [4] was > 100 µg, the “LC50 MW” value [5] was > 0.01% and the “LC50 TBW E (eggs)” value [6] was > 0.1%.

For `CC(C)C(=Nc1cccc(C(F)(F)F)c1)OCc1cccc(Oc2ccc(Cl)cn2)c1` [Compound 518], the “LC50 LH” value [1] was > 0.05%, the “LC50 BBA” value [2] was > 0.05% and the “LC50 CL” value [3] was 0.00075%. For the same compound, the “LC50 HF” value [4] was > 100 µg, the “LC50 MW” value [5] was > 0.01% and the “LC50 TBW E (eggs)” value [6] was > 0.1%.

With `CC(C)C(=Nc1ccc(OC(F)(F)F)cc1)OCc1cccc(Cc2ccccc2)c1` [Compound 538] the “LC50 LH” value [1] was > 0.05%, the “LC50 CL” value [3] was > 0.1% and the “LC50 HF” value [4] was 75 µg. The “LC50 MW” value [5] was > 0.01% and the “LC50 TBW E (eggs)” value [6] was > 0.1%.

`CC(C)C(=Nc1ccc(Cl)c(C(F)(F)F)c1)OCc1cccc(Oc2ccc(F)cc2)c1` [Compound 193] was tested, and the “LC50 LH” value [1] was 0.001%, the “LC50 CL” value [3] was 0.00075% and the “LC50 HF” value [4] was 100 µg. The “LC50 MW” value [5] was > 0.01% and the “LC50 TBW E (eggs)” value [6] was > 0.1%.

In the case of `CC(C)C(=Nc1ccc2c(c1)OCO2)OCc1cccc(Oc2ccc(Cl)cc2)n1` [Compound 466], the “LC50 LH” value [1] is reported as > 0.05%, the “LC50 CL” value [3] is reported as 0.0008% and the “LC50 HF” value [4] is reported as 13 µg. For the same compound, the “LC50 MW” value [5] was 0.01% and the “LC50 TBW E (eggs)” value [6] was > 0.1%.

In the case of `COCc1c(F)c(F)c(COC(=Nc2ccc(F)c(Cl)c2F)C(C)C)c(F)c1F` [Compound 522], the “LC50 LH” value [1] is reported as 0.05%, the “LC50 BBA” value [2] is reported as 0.002% and the “LC50 CL” value [3] is reported as > 0.1%. The “LC50 MW” value [5] was > 0.01% and the “LC50 TBW E (eggs)” value [6] was > 0.1%.

For `CC(C)C(=Nc1ccc(Cl)cc1)OCc1cccc(Oc2ccc(F)cc2)c1` [Compound 189], the “LC50 LH” value [1] was 0.002%, the “LC50 CL” value [3] was 0.00027% and the “LC50 HF” value [4] was 17 µg. For the same compound, the “LC50 MW” value [5] was > 0.01% and the “LC50 TBW E (eggs)” value [6] was 0.07%.

`CC(C)C(=Nc1cccc(C(F)(F)F)c1)OCc1cc(Oc2ccc(F)cc2)ccn1` [Compound 528] was tested, and the “LC50 LH” value [1] was > 0.05%, the “LC50 BBA” value [2] was > 0.05% and the “LC50 CL” value [3] was 0.0075%. The “LC50 MW” value [5] was > 0.01% and the “LC50 TBW E (eggs)” value [6] was > 0.1%.

In the case of `FC(F)(F)C(=Nc1ccc(Cl)cc1)OCc1cccc(Oc2ccccc2)c1` [Compound 35], the “LC50 LH” value [1] is reported as > 0.05%, the “LC50 CL” value [3] is reported as 0.008% and the “LC50 HF” value [4] is reported as 15 µg. For the same compound, the “LC50 MW” value [5] was > 0.01% and the “LC50 TBW E (eggs)” value [6] was 0.03%.

`CC1(C(=Nc2ccc(Cl)cc2)OCc2cccc(Oc3ccccc3)c2)CC1` [Compound 5] was tested, and the “LC50 LH” value [1] was > 0.05%, the “LC50 BBA” value [2] was 0.001% and the “LC50 CL” value [3] was 0.005%. For the same compound, the “LC50 HF” value [4] was 21 µg and the “LC50 MW” value [5] was > 0.01%.

In the case of `Cc1ccc(N=C(OCc2cccc(Oc3ccccc3)c2)C(C)C)cc1Cl` [Compound 90], the “LC50 LH” value [1] is reported as 0.001%, the “LC50 BBA” value [2] is reported as 0.0003% and the “LC50 CL” value [3] is reported as > 0.1%. The “LC50 HF” value [4] was > 100 µg and the “LC50 TBW E (eggs)” value [6] was 0.016%.

For `CCc1cccc(N=C(OCc2cccc(Oc3ccccc3)c2)C(C)C)c1` [Compound 154], the “LC50 LH” value [1] was > 0.05%, the “LC50 BBA” value [2] was 0.002% and the “LC50 CL” value [3] was 0.004%. For the same compound, the “LC50 HF” value [4] was 25 µg and the “LC50 TBW E (eggs)” value [6] was 0.1%.

With `CC(C)C(=Nc1ccc(F)c(Cl)c1)OCc1cc(Oc2ccc(F)cc2)ccn1` [Compound 529] the “LC50 LH” value [1] was > 0.05%, the “LC50 BBA” value [2] was > 0.05% and the “LC50 CL” value [3] was > 0.0025%. The “LC50 MW” value [5] was > 0.01% and the “LC50 TBW E (eggs)” value [6] was > 0.1%.
